Laboratory results as given in the NIST ThermoML archive (doi:10.1016/j.jct.2015.07.028).

Test: molar heat capacity at saturation pressure
Details: Small (less than 1 g) adiabatic calorimetry

C=CC(C)(C)O [2-methyl-3-buten-2-ol]
molar heat capacity [J/K/mol]
Details	Crystal 1	Liquid
169.35 K	120.3	–
169.77 K	120.8	–
170 K	121	–
171.3 K	122.5	–
172.07 K	123.4	–
173.24 K	124.6	–
174.35 K	125.9	–
175.17 K	126.8	–
176.62 K	128.4	–
177.09 K	128.8	–
178.87 K	130.7	–
179 K	130.8	–
179.83 K	131.6	–
180 K	131.9	–
180.91 K	132.7	–
181.12 K	133	–
182.29 K	134.1	–
182.8 K	134.7	–
183.35 K	135.2	–
184.61 K	136.5	–
184.69 K	136.5	–
185.57 K	137.5	–
186.58 K	138.4	–
186.93 K	138.7	–
187.79 K	139.5	–
188.45 K	140.2	–
189.23 K	140.9	–
189.99 K	141.7	–
190 K	141.7	–
190.32 K	141.9	–
190.4 K	142	–
191.52 K	143.1	–
192.18 K	143.7	–
192.46 K	144.1	–
193.79 K	145.4	–
194.04 K	145.5	–
194.36 K	146	–
194.42 K	146	–
195.89 K	147.4	–
196.05 K	147.7	–
196.36 K	147.9	–
196.53 K	148.2	–
197.73 K	149.3	–
198.3 K	150	–
198.69 K	150.5	–
199.56 K	151.3	–
200 K	151.5	–
200.23 K	152	–
200.54 K	152.4	–
200.84 K	152.9	–
201.38 K	153.4	–
202.15 K	154.2	–
202.82 K	155.2	–
202.98 K	155.5	–
203.2 K	155.5	–
204.05 K	156.6	–
205 K	157.8	–
205.1 K	158.3	–
205.14 K	158.2	–
205.95 K	159.3	–
206.79 K	160.4	–
207.21 K	161.1	–
207.45 K	161.3	–
207.83 K	162	–
208.58 K	163	–
209.3 K	164.2	–
209.7 K	164.9	–
209.73 K	164.8	–
210 K	161.4	–
210.51 K	166.1	–
211.48 K	167.6	–
211.99 K	168.4	–
212.63 K	169.5	–
213.77 K	171.3	–
214.23 K	172.1	–
214.72 K	172.9	–
216.04 K	174.8	–
216.46 K	175.1	–
216.8 K	176	–
218.3 K	178.6	–
218.66 K	178.8	–
218.86 K	179	–
220 K	171.2	–
220.53 K	182.2	–
220.85 K	182.3	–
220.9 K	182.4	–
222.77 K	186.2	–
222.93 K	186.4	–
223.02 K	186.5	–
224.94 K	191.2	–
224.97 K	190.4	–
225.17 K	191	–
226.94 K	195.7	–
227.09 K	196.6	–
227.29 K	196	–
228.88 K	201.4	–
229.2 K	202.9	–
229.37 K	202.7	–
230.8 K	208.3	–
231.27 K	210.9	–
231.43 K	210.5	–
232.67 K	217.3	–
233.3 K	221.6	–
233.43 K	221.3	–
234.49 K	229.7	–
235.25 K	237.1	–
235.37 K	236.9	–
236.24 K	248.1	–
240 K	190.8	–
245.03 K	195.7	193.8
245.63 K	–	195.7
245.81 K	–	194.6
246.77 K	–	194.9
247.82 K	–	195.6
247.97 K	–	195.7
248.89 K	–	196.3
249.15 K	–	196.4
250 K	–	197.1
250.07 K	–	197.1
250.13 K	–	197.2
250.55 K	–	197.4
251.14 K	–	197.8
251.38 K	–	197.9
252.31 K	–	198.7
252.44 K	–	198.8
252.58 K	–	198.8
253.39 K	–	199.4
253.62 K	–	199.5
254.55 K	–	200.3
254.63 K	–	200.3
254.88 K	–	200.5
255.63 K	–	201
255.85 K	–	201.2
256.68 K	–	201.8
256.78 K	–	201.9
257.32 K	–	202.4
257.86 K	–	202.7
258.07 K	–	202.9
258.73 K	–	203.4
259 K	–	203.6
259.76 K	–	204.2
260 K	–	204.4
260.78 K	–	205
262.18 K	–	206.2
262.83 K	–	206.7
264.6 K	–	208.1
264.88 K	–	208.4
266.93 K	–	210
267.01 K	–	210.2
268.98 K	–	211.8
269.4 K	–	212.2
270 K	–	212.7
271.03 K	–	213.5
271.79 K	–	214.3
273.08 K	–	215.2
273.15 K	–	215.4
274.18 K	–	216.2
275.13 K	–	217.1
276.55 K	–	218.4
277.18 K	–	218.9
278.91 K	–	220.5
279.23 K	–	220.7
280 K	–	221.4
281.26 K	–	222.6
281.28 K	–	222.6
283.33 K	–	224.4
283.61 K	–	224.6
285.38 K	–	226.2
285.94 K	–	226.8
287.43 K	–	228
288.26 K	–	228.9
289.48 K	–	229.9
290 K	–	230.3
290.57 K	–	230.9
291.53 K	–	231.6
292.87 K	–	232.8
293.58 K	–	233.4
295.16 K	–	234.7
295.63 K	–	235.2
297.44 K	–	236.8
297.69 K	–	236.9
298.15 K	–	237.4
299.72 K	–	238.7
299.74 K	–	238.7
300 K	–	238.9
301.79 K	–	240.4
303.84 K	–	242.1
305.9 K	–	243.7
307.95 K	–	245.3
310 K	–	246.9
310.01 K	–	246.9
312.06 K	–	248.3
314.12 K	–	249.9
316.18 K	–	251.3
318.23 K	–	252.8
320 K	–	253.9
320.29 K	–	254.1
322.35 K	–	255.4
324.41 K	–	256.7
326.47 K	–	258
328.53 K	–	259.1
330 K	–	259.9
330.59 K	–	260.2
332.65 K	–	261.4
334.71 K	–	262.3
336.78 K	–	263.3
338.84 K	–	264.2
340 K	–	264.7
340.9 K	–	265
342.97 K	–	265.8
345.03 K	–	266.6
347.09 K	–	267.3
349.16 K	–	268
350 K	–	268.3
351.22 K	–	268.7
353.29 K	–	269.1
355.35 K	–	269.8
357.42 K	–	270.4
359.48 K	–	270.9
360 K	–	270.9
361.55 K	–	271.3
363.61 K	–	271.6
365.68 K	–	272.1
367.74 K	–	272.4
370 K	–	272.9
